Where “and” joins values, the source holds several entries; their conditions need not be identical. Identical values can stand only once.
Columns and labels:
Assay type in all cases: functional
Rattus norvegicus [1] = experiment: Stool output of rat over the 6-h collection period when a dose of 0 mg/kg (0 administered
Rattus norvegicus [2] = experiment: Stool output of rat over the 6-h collection period when a dose of 28.2 mg/kg (57.8 administered
Rattus norvegicus [3] = experiment: Percent reduction was determined by using the ratio of mean of treated animal to that of control animal at a dose of 28.2 mg/kg
Rattus norvegicus [4] = experiment: Weight loss of rat over the 6-h experimental period when a dose of 0 mg/kg (0 administered
Rattus norvegicus [5] = experiment: Weight loss of rat over the 6-h experimental period when a dose of 1.1 mg/kg (2.3 administered
Rattus norvegicus [6] = experiment: Stool output of rat over the 6-h collection period when a dose of 5.7 mg/kg (11.6 administered
Rattus norvegicus [7] = experiment: Weight loss of rat over the 6-h experimental period when a dose of 5.7 mg/kg (11.6 administered
Rattus norvegicus [8] = experiment: Weight loss of rat over the 6-h experimental period when a dose of 28.2 mg/kg (57.8 administered
Rattus norvegicus [9] = experiment: Stool output of rat over the 6-h collection period when a dose of 1.1 mg/kg (2.3 administered
Rattus norvegicus [10] = experiment: Weight loss of rat over the 6-h experimental period when a dose of 0.0156 mg/kg (0.036 administered
Rattus norvegicus [11] = experiment: Stool output of rat over the 6-h collection period when a dose of 24.87 mg/kg (57.8 administered
Rattus norvegicus [12] = experiment: Percent reduction was determined by using the ratio of mean of treated animal to that of control animal at a dose of 0.03125 mg/kg
Rattus norvegicus [13] = experiment: Percent reduction was determined by using the ratio of mean of treated animal to that of control animal at a dose of 0.5 mg/kg
Rattus norvegicus [14] = experiment: Weight loss of rat over the 6-h experimental period when a dose of 0.03125 mg/kg (0.0726 administered
Rattus norvegicus [15] = experiment: Percent reduction was determined by using the ratio of mean of treated animal to that of control animal at a dose of 24.87 mg/kg
Rattus norvegicus [16] = experiment: Stool output of rat over the 6-h collection period when a dose of 4.97 mg/kg (11.6 uMl) was administered
Rattus norvegicus [17] = experiment: Stool output of rat over the 6-h collection period when a dose of 0.0156 mg/kg (0.036 administered
Rattus norvegicus [18] = experiment: Stool output of rat over the 6-h collection period when a dose of 0.03125 mg/kg (0.0726 administered
Rattus norvegicus [19] = experiment: Stool output of rat over the 6-h collection period when a dose of 0.5 mg/kg (1.16 administered
Rattus norvegicus [20] = experiment: Percent reduction was determined by using the ratio of mean of treated animal to that of control animal at a dose of 0.0625 mg/kg
Rattus norvegicus [21] = experiment: Stool output of rat over the 6-h collection period when a dose of 0.125 mg/kg (0.29 administered
Rattus norvegicus [22] = experiment: Weight loss of rat over the 6-h experimental period when a dose of 0.99 mg/kg (2.3 administered
Rattus norvegicus [23] = experiment: Percent reduction was determined by using the ratio of mean of treated animal to that of control animal at a dose of 0.0078 mg/kg
Rattus norvegicus [24] = experiment: Weight loss of rat over the 6-h experimental period when a dose of 0.0078 mg/kg (0.0181 administered
Rattus norvegicus [25] = experiment: Percent reduction was determined by using the ratio of mean of treated animal to that of control animal at a dose of 0.0156 mg/kg
Rattus norvegicus [26] = experiment: Weight loss of rat over the 6-h experimental period when a dose of 24.87 mg/kg (57.8 administered
Rattus norvegicus [27] = experiment: Weight loss of rat over the 6-h experimental period when a dose of 0.25 mg/kg (0.58 administered
Rattus norvegicus [28] = experiment: Weight loss of rat over the 6-h experimental period when a dose of 4.97 mg/kg (11.6 administered
Rattus norvegicus [29] = experiment: Stool output of rat over the 6-h collection period when a dose of 0.0625 mg/kg (0.145 administered
Rattus norvegicus [30] = experiment: Weight loss of rat over the 6-h experimental period when a dose of 0.0625 mg/kg (0.145 administered
Rattus norvegicus [31] = experiment: Weight loss of rat over the 6-h experimental period when a dose of 0.125 mg/kg (0.29 administered
Rattus norvegicus [32] = experiment: Percent reduction was determined by using the ratio of mean of treated animal to that of control animal at a dose of 4.97 mg/kg
Rattus norvegicus [33] = experiment: Percent reduction was determined by using the ratio of mean of treated animal to that of control animal at a dose of 0.99 mg/kg
Rattus norvegicus [34] = experiment: Stool output of rat over the 6-h collection period when a dose of 0.0078 mg/kg (0.0181 administered
Rattus norvegicus [35] = experiment: Percent reduction was determined by using the ratio of mean of treated animal to that of control animal at a dose of 0.125 mg/kg
Rattus norvegicus [36] = experiment: Stool output of rat over the 6-h collection period when a dose of 0.25 mg/kg (0.58 administered
Rattus norvegicus [37] = experiment: Stool output of rat over the 6-h collection period when a dose of 0.99 mg/kg (2.3 administered
Rattus norvegicus [38] = experiment: Percent reduction was determined by using the ratio of mean of treated animal to that of control animal at a dose of 0.25 mg/kg
Rattus norvegicus [39] = experiment: Weight loss of rat over the 6-h experimental period when a dose of 0.5 mg/kg (1.16 administered

## CC(C)CCNCCCNCCCCNCCCNCCC(C)C
Rattus norvegicus [1]
  Stool output: 4.6 g (350g of rat weight)-1
Rattus norvegicus [2]
  Stool output: <0 g (350g of rat weight)-1
Rattus norvegicus [3]
  Reduction: 89% and 100%
Rattus norvegicus [4]
  Weight loss: 14.6 g
Rattus norvegicus [5]
  Weight loss: >14.2 g
Rattus norvegicus [6]
  Stool output: >7.8 g (350g of rat weight)-1
Rattus norvegicus [7]
  Weight loss: >18.3 g
Rattus norvegicus [8]
  Weight loss: <1.6 g
Rattus norvegicus [9]
  Stool output: >4.9 g (350g of rat weight)-1

## CCNCCCNC1CCC(NCCCNCC)CC1 (stereo unspecified)
Rattus norvegicus [10]
  Weight loss: <3.1 g
Rattus norvegicus [11]
  Stool output: <0 g (350g of rat weight)-1
Rattus norvegicus [12]
  Reduction: 64% and 100%
Rattus norvegicus [13]
  Reduction: 75% and 100%
Rattus norvegicus [1]
  Stool output: 4.9 g (350g of rat weight)-1
Rattus norvegicus [14]
  Weight loss: <4.2 g
Rattus norvegicus [4]
  Weight loss: 11.6 g
Rattus norvegicus [15]
  Reduction: 93% and 100%
Rattus norvegicus [16]
  Stool output: <0 g (350g of rat weight)-1
Rattus norvegicus [17]
  Stool output: <0.4 g (350g of rat weight)-1
Rattus norvegicus [18]
  Stool output: <0 g (350g of rat weight)-1
Rattus norvegicus [19]
  Stool output: <0 g (350g of rat weight)-1
Rattus norvegicus [20]
  Reduction: 68% and 100%
Rattus norvegicus [21]
  Stool output: <0 g (350g of rat weight)-1
Rattus norvegicus [22]
  Weight loss: <2.7 g
Rattus norvegicus [23]
  Reduction: 24%
Rattus norvegicus [24]
  Weight loss: <8.8 g
Rattus norvegicus [25]
  Reduction: 73% and 92%
Rattus norvegicus [26]
  Weight loss: <0.8 g
Rattus norvegicus [27]
  Weight loss: <2.7 g
Rattus norvegicus [28]
  Weight loss: <1.6 g
Rattus norvegicus [29]
  Stool output: <0 g (350g of rat weight)-1
Rattus norvegicus [30]
  Weight loss: <3.7 g
Rattus norvegicus [31]
  Weight loss: <4.1 g
Rattus norvegicus [32]
  Reduction: 86% and 100%
Rattus norvegicus [33]
  Reduction: 77% and 100%
Rattus norvegicus [34]
  Stool output: >3.6 g (350g of rat weight)-1
Rattus norvegicus [35]
  Reduction: 65% and 100%
Rattus norvegicus [36]
  Stool output: <0 g (350g of rat weight)-1
Rattus norvegicus [37]
  Stool output: <0 g (350g of rat weight)-1
Rattus norvegicus [38]
  Reduction: 77% and 100%
Rattus norvegicus [39]
  Weight loss: <2.9 g

From ChEMBL document CHEMBL1134446, “Polyamine analogue antidiarrheals: a structure-activity study” (J Med Chem, 2001)
